Assays:
metastatic lung tumors = assay: Metastatic lung cancer study in rabbits, IP port delivery (FIG. 4); conditions: dissected lungs
liver cancer cells = assay: Photographs of liver cancer cells treated with 3BP (FIG. 2); assay type: cell-based
From the text: The presently disclosed cellular energy inhibitors, shown as 3-bromopyruvate (3BP) (a lactic acid analog) in FIG. 1, are small chemicals and can mimic the lactic acid chemical structure; depicted as a small diamond in FIG. 1. Therefore, cellular energy inhibitors disguised as lactic acid can “trick” the cancer cells and enter like a Trojan horse (FIG. 1). The inhibitors have little effect on normal cells as these contain very few lactic acid transporters. Because of the present cellular energy inhibitors' highly reactive nature, it can destroy the two energy production factories (FIG. 1; one diamond above the hexokinase (HK), shown as 3BP is destroying one energy production factory, i.e., glycolysis, and another red diamond inside the mitochondrion means that 3BP is destroying also this energy production factory). As a result, the cellular energy (ATP) can be depleted very rapidly by cellular energy inhibitors; 3BP in FIG. 1, attack the two factories at the same time causing the cancer cells to rapidly explode (cell membrane rupturing). […] Here, the healthy cancer cells are round and iridescent (left picture).

[1] = tested on: Hepatocellular carcinoma cells; assay: Rat hepatocellular carcinoma study: cancer cell viability vs μM of anti-cancer agents (FIG. 3); conditions: 23 hour period; 3-bromopyruvate with as little as 20 μM
[2] = tested on: human prostate cancer cells; assay: Cell viability/proliferation of human prostate cancer cells vs various anti-cancer agents (FIG. 9); assay type: cell-based
From the text: The anti-cancer compositions described herein can be used to treat any cancer having increased glycolysis; the metabolic phenotype referred to as the “Warburg Effect”, as described above. In another embodiment, the anti-cancer compositions can be used to treat any cancer that can be detected by Positron Emission Tomography (PET), which detects this metabolic phenotype. For example, FIG. 5 illustrates a reaction scheme for PET scanning. Human cancer cell lines that the present anti-cancer composition has shown to be effective against include liver, cervical, ovarian, lung, breast, colon, neuroblastoma, medulloblastoma, prostate, skin, pancreatic, childhood fibrolamellar hepatocellular carcinoma (FHCC), hepatocellular carcinoma (HCC), non small cell lung cancer. For example, FIG. 9 depicts a bar graph showing various cancer drugs effects on human prostate cancer cells. […] As such, the present cancers that can be treated with the present anti-cancer compositions can be selected from the group consisting of liver, cervical, ovarian, lung, breast, colon, neuroblastoma, medulloblastoma, prostate, skin, pancreatic, childhood fibrolamellar hepatocellular carcinoma (FHCC), hepatocellular carcinoma (HCC), non small cell lung cancer. […]

O=C(O)C(=O)CBr [3-Bromopyruvate, 3-bromopyruvate]
metastatic lung cancer after treatment (metastatic lung tumors): no metastatic lung cancer
cell morphology / death after treatment (liver cancer cells): the cell membranes rupture
cell viability [1]: approx. 5%
stopping cancer cell proliferation vs other known chemo-agents [2]: better than other known chemo-agents in stopping cancer cell proliferation

Reference: patent US11077078B2, “Compositions and methods for the treatment of cancer” (KoDiscovery, LLC, priority 2006, dated 2021)
